Measured values: PubChem BioAssay AID248 (DTP/NCI, 2004)
Values joined by “and” are separate entries in the source; they are usually repeats but may differ in a detail not shown here. Equal entries are not always repeated. Toxic doses and inconclusive results are not listed.

Tested on: L1210 leukemia ip in BDF1 mice, survival T/C
Assay: NCI In Vivo Anticancer Drug Screen. Data for tumor model L1210 Leukemia (intraperitoneal) in B6D2F1 (BDF1) mice
Settings: endpoint: mean survival time, higher = longer survival
How it was run: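 Read-out is survival time, reported as the treated-group measurement over the vehicle-control measurement.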

[1] = dose: 50.0 mg/kg/injection, schedule: Q01DX009 (ip), vehicle: saline
[2] = dose: 100.0 mg/kg/injection, schedule: Q01DX009 (ip), vehicle: saline
[3] = dose: 200.0 mg/kg/injection, schedule: Q01DX009 (ip), vehicle: saline
[4] = dose: 100.0 mg/kg/injection, schedule: Q04DX003 (ip), vehicle: saline with Tween-80
[5] = dose: 200.0 mg/kg/injection, schedule: Q04DX003 (ip), vehicle: saline with Tween-80
[6] = dose: 400.0 mg/kg/injection, schedule: Q04DX003 (ip), vehicle: saline with Tween-80
[7] = dose: 100.0 mg/kg/injection, schedule: Q01DX009 (ip), vehicle: Klucel (hydroxypropylcellulose) (HPC)
[8] = dose: 100.0 mg/kg/injection, schedule: Q04DX003 (ip), vehicle: Klucel (hydroxypropylcellulose) (HPC)
[9] = dose: 200.0 mg/kg/injection, schedule: Q01DX009 (ip), vehicle: Klucel (hydroxypropylcellulose) (HPC)
[10] = dose: 200.0 mg/kg/injection, schedule: Q04DX003 (ip), vehicle: Klucel (hydroxypropylcellulose) (HPC)
[11] = dose: 400.0 mg/kg/injection, schedule: Q01DX009 (ip), vehicle: Klucel (hydroxypropylcellulose) (HPC)
[12] = dose: 400.0 mg/kg/injection, schedule: Q04DX003 (ip), vehicle: Klucel (hydroxypropylcellulose) (HPC)
[13] = dose: 100.0 mg/kg/injection, schedule: Q04DX003 (ip), vehicle: saline
[14] = dose: 200.0 mg/kg/injection, schedule: Q04DX003 (ip), vehicle: saline
[15] = dose: 50.0 mg/kg/injection, schedule: Q01DX001 (ip), vehicle: Klucel (hydroxypropylcellulose) (HPC)
[16] = dose: 100.0 mg/kg/injection, schedule: Q01DX001 (ip), vehicle: Klucel (hydroxypropylcellulose) (HPC)
[17] = dose: 200.0 mg/kg/injection, schedule: Q01DX001 (ip), vehicle: Klucel (hydroxypropylcellulose) (HPC)

## NC(=O)c1nn(C2OC(CO)C(O)C2O)c2ncnc(N)c12 (stereo unspecified)
dose: 50.0 mg/kg/injection, schedule: Q01DX005 (ip), vehicle: saline
  T/C: 236 % of control
dose: 100.0 mg/kg/injection, schedule: Q01DX005 (ip), vehicle: saline
  T/C: 258 % of control
dose: 200.0 mg/kg/injection, schedule: Q01DX005 (ip), vehicle: saline
  T/C: 236 % of control

## O=P(O)(O)OCC1OC(n2cnc3c(Cl)ncnc32)C(O)C1O (stereo unspecified)
dose: 50.0 mg/kg/injection, schedule: Q04DX002 (ip), vehicle: saline
  T/C: 115 % of control
dose: 100.0 mg/kg/injection, schedule: Q04DX002 (ip), vehicle: saline
  T/C: 100 % of control
dose: 200.0 mg/kg/injection, schedule: Q04DX002 (ip), vehicle: saline
  T/C: 123 % of control

## CC1CC(C)(C)OC(C(Cl)(Cl)Cl)O1 (stereo unspecified)
[1]
  T/C: 98 % of control
[2]
  T/C: 93 % of control
dose: 100.0 mg/kg/injection, schedule: Q04DX003 (ip), vehicle: acetone
  T/C: 112 % of control
[3]
  T/C: 93 % of control
dose: 200.0 mg/kg/injection, schedule: Q04DX003 (ip), vehicle: acetone
  T/C: 106 % of control
dose: 400.0 mg/kg/injection, schedule: Q04DX003 (ip), vehicle: acetone
  T/C: 103 % of control

## O=C(Nc1ccc2c(c1)OCO2)O/N=C\c1cccnc1
dose: 12.5 mg/kg/injection, schedule: Q01DX009 (ip), vehicle: saline with Tween-80
  T/C: 97 % of control
dose: 25.0 mg/kg/injection, schedule: Q01DX009 (ip), vehicle: saline with Tween-80
  T/C: 105 % of control
dose: 50.0 mg/kg/injection, schedule: Q01DX009 (ip), vehicle: saline with Tween-80
  T/C: 100 % of control
dose: 100.0 mg/kg/injection, schedule: Q01DX009 (ip), vehicle: saline with Tween-80
  T/C: 86 % of control
[4]
  T/C: 100 % of control
dose: 200.0 mg/kg/injection, schedule: Q01DX009 (ip), vehicle: saline with Tween-80
  T/C: 91 % of control
[5]
  T/C: 113 % of control
[6]
  T/C: 111 % of control

## CCC(CC)N1CCCS1(=O)=O
[2]
  T/C: 93 % of control
[3]
  T/C: 102 % of control
dose: 400.0 mg/kg/injection, schedule: Q01DX009 (ip), vehicle: saline
  T/C: 96 % of control

## CC(=O)Nc1cc([N+](=O)[O-])ccc1CC(O)c1ccccc1Cl (stereo unspecified)
[7]
  T/C: 92 % of control
[8]
  T/C: 97 % of control
[9]
  T/C: 103 % of control
[10]
  T/C: 108 % of control
[11]
  T/C: 104 % of control
[12]
  T/C: 103 % of control

## O=C(Nc1ccc(F)cc1)Nc1ccccc1C(F)(F)F
[7]
  T/C: 95 % of control
[9]
  T/C: 97 % of control
[11]
  T/C: 88 % of control

## NNc1nncn1N
[1]
  T/C: 101 % of control
[2]
  T/C: 102 % of control
[13]
  T/C: 97 % of control
[3]
  T/C: 103 % of control
[14]
  T/C: 94 % of control

## Cc1c(C(C)(C)c2ccccc2)[nH]c2ccc(C(C)(C)c3ccccc3)cc12
dose: 100.0 mg/kg/injection, schedule: Q01DX001 (ip), vehicle: saline
  T/C: 88 % of control
dose: 200.0 mg/kg/injection, schedule: Q01DX001 (ip), vehicle: saline
  T/C: 86 % of control
dose: 400.0 mg/kg/injection, schedule: Q01DX001 (ip), vehicle: saline
  T/C: 96 % of control

## CCCCSc1ccccn1
dose: 50.0 mg/kg/injection, schedule: Q04DX003 (ip), vehicle: saline
  T/C: 114 % of control
[13]
  T/C: 98 % of control
[14]
  T/C: 90 % of control

## COc1ccc(/C=C(\C#N)c2ccc([N+](=O)[O-])cc2)cc1[N+](=O)[O-]
dose: 100.0 mg/kg/injection, schedule: Q04DX002 (ip), vehicle: Klucel (hydroxypropylcellulose) (HPC)
  T/C: 105 % of control
dose: 200.0 mg/kg/injection, schedule: Q04DX002 (ip), vehicle: Klucel (hydroxypropylcellulose) (HPC)
  T/C: 105 % of control
dose: 400.0 mg/kg/injection, schedule: Q04DX002 (ip), vehicle: Klucel (hydroxypropylcellulose) (HPC)
  T/C: 102 % of control

## O=C(COCc1ccccc1)OCc1ccccc1
dose: 100.0 mg/kg/injection, schedule: Q01DX009 (ip), vehicle: saline sonified
  T/C: 100 % of control
dose: 100.0 mg/kg/injection, schedule: Q04DX003 (ip), vehicle: saline sonified
  T/C: 90 % of control
[13]
  T/C: 98 % of control
dose: 200.0 mg/kg/injection, schedule: Q01DX009 (ip), vehicle: saline sonified
  T/C: 102 % of control
dose: 200.0 mg/kg/injection, schedule: Q04DX003 (ip), vehicle: saline sonified
  T/C: 114 % of control
[14]
  T/C: 94 % of control
dose: 400.0 mg/kg/injection, schedule: Q01DX009 (ip), vehicle: saline sonified
  T/C: 98 % of control
dose: 400.0 mg/kg/injection, schedule: Q04DX003 (ip), vehicle: saline sonified
  T/C: 106 % of control
dose: 400.0 mg/kg/injection, schedule: Q04DX003 (ip), vehicle: saline
  T/C: 94 % of control

## O=C1C(=O)c2ccccc2C(O)=C1C(C1=C(O)c2ccccc2C(=O)C1=O)c1ccc(Cl)cc1Cl
dose: 75.0 mg/kg/injection, schedule: Q01DX001 (ip), vehicle: other
  T/C: 91 % of control
dose: 150.0 mg/kg/injection, schedule: Q01DX001 (ip), vehicle: other
  T/C: 91 % of control
dose: 300.0 mg/kg/injection, schedule: Q01DX001 (ip), vehicle: other
  T/C: 107 % of control

## CC1(C)C(N2CCCCC2)CS1(=O)=O (stereo unspecified)
dose: 12.5 mg/kg/injection, schedule: Q01DX009 (ip), vehicle: saline sonified
  T/C: 103 % of control
dose: 25.0 mg/kg/injection, schedule: Q01DX009 (ip), vehicle: saline sonified
  T/C: 98 % of control
dose: 50.0 mg/kg/injection, schedule: Q01DX009 (ip), vehicle: saline sonified
  T/C: 94 % of control

## O=C1c2ccccc2C(=O)N1CCCO
[15]
  T/C: 96 % of control
[16]
  T/C: 100 % of control
[17]
  T/C: 102 % of control

## O=C(c1ccccc1)C1OC(=O)C1c1ccccc1 (stereo unspecified)
[16]
  T/C: 97 % of control
[8]
  T/C: 101 % of control
[17]
  T/C: 92 % of control
[10]
  T/C: 101 % of control
dose: 400.0 mg/kg/injection, schedule: Q01DX001 (ip), vehicle: Klucel (hydroxypropylcellulose) (HPC)
  T/C: 103 % of control
[12]
  T/C: 97 % of control

## OC1(Cc2nccc3ccccc23)CCN(Cc2ccccc2)CC1
dose: 100.0 mg/kg/injection, schedule: Q04DX003 (ip), vehicle: carboxymethylcellulose (CMC)
  T/C: 89 % of control
dose: 200.0 mg/kg/injection, schedule: Q04DX003 (ip), vehicle: carboxymethylcellulose (CMC)
  T/C: 98 % of control

## Nc1cc2c(cc1Br)-c1ccccc1/C2=N\O
dose: 100.0 mg/kg/injection, schedule: Q01DX001 (ip), vehicle: carboxymethylcellulose (CMC)
  T/C: 102 % of control
dose: 200.0 mg/kg/injection, schedule: Q01DX001 (ip), vehicle: carboxymethylcellulose (CMC)
  T/C: 102 % of control
dose: 400.0 mg/kg/injection, schedule: Q01DX001 (ip), vehicle: carboxymethylcellulose (CMC)
  T/C: 100 % of control

## CCCCC(CCCCCC(CCCC)C1NC(C)Cc2cc(OC)c(OC)cc21)C1NC(C)Cc2cc(OC)c(OC)cc21 (stereo unspecified)
dose: 25.0 mg/kg/injection, schedule: Q01DX001 (ip), vehicle: Klucel (hydroxypropylcellulose) (HPC)
  T/C: 98 % of control
[15]
  T/C: 105 % of control
[16]
  T/C: 90 % of control and 91 % of control

## Cc1ccc(N2CCN(Cc3ccc4ccccc4c3)CC2)cc1
[4]
  T/C: 102 % of control
[5]
  T/C: 94 % of control
[6]
  T/C: 100 % of control
